Assay results from patent publication US12629322B2, “Antiseptic compositions” (RHT LIMITED, priority 2020, dated 2026).

How the values were obtained:
[1] = system: PolySeed BOD Seed Inoculum (blend of broad spectrum bacteria); test: Durability test of bacteria inhibition (repeated spiking of bacteria on agar plate, swab viable count); format: cell-based; conditions: bacteria spiked every 60 minutes
Protocol: To evaluate the durability of bacteria inhibition of the exemplary compositions, durability test by regularly spiking a fixed amount of bacteria into the sample is performed and the procedures are incorporated herein by reference.
• Group A: Agar plate with 0.5 mL distilled water; • Group B: Agar plate with 0.5 mL 75% isopropyl alcohol (IPA); • Group C: Agar plate with 0.5 g of tested exemplary composition.
Bacteria strain used: PolySeed® BOD Seed Inoculum Capsules (1 capsule dissolved into 500 mL Distilled Water) (Interlab), which contains a blend of broad spectrum bacteria designed specifically as a seed inoculum for the Biochemical Oxygen Demand (BOD 5) test as conducted in accordance to Standard Methods of the Examination of Water and Wastewater. PolySeed® is an EPA approved BOD 5 seed inoculum that has been used to seed both municipal and industrial wastes for almost 20 years. • Agar: Trypticase Soy Agar (TSA) • Incubation condition: 48 hours at 30±1° C. • Testing Procedure
The above three sample group agar plates are used as the sample matrices of different initial situation for spiking 0.5 ml bacteria solution for every 60 minutes, i.e.: there was an on-going process of spiking bacteria at time 0, 60, 120, 180, 240, 300 minutes;
A swab testing is carried out every 30 minutes from matrix samples of each group to test for the viable count of bacteria at the time interval.
Example of sample with sequence in time: • AM: 0.5 ml bacteria solution is added at T0−10 min; • Sample A1: To swab from AM at T0; Sample A2: To swab from AM at T1; • AM: 0.5 ml bacteria solution is added at T2−10 min; • Sample A3: To swab from AM at T2; Sample A4: To swab from AM at T3; • AM: 0.5 ml bacteria solution is added at T4−10 min; and so forth. Table 2 summarized the testing schedule for durability test.

[2] = system: PolySeed BOD Seed Inoculum (blend of broad spectrum bacteria); test: Volatility test (duration of bacteria inhibition on agar plate, swab viable count); format: cell-based
Protocol: To study the duration on ability of bacteria inhibition of an exemplary composition, a volatility test is performed.
• Group A: Agar plate with 0.5 mL distilled water; • Group B: Agar plate with 0.5 mL 75% isopropyl alcohol (IPA); • Group C: Agar plate with 0.5 g of tested exemplary composition. • Bacteria strain used: PolySeed® BOD Seed Inoculum Capsules (1 capsule dissolved into 500 mL Distilled Water) (Interlab) • Agar: Trypticase Soy Agar (TSA) • Incubation condition: 48 hours at 30±1° C. Testing Procedure
0.5 mL bacteria solution is add into the agar plate groups A, B and C at the time interval of Tx. as defined in Table 1.3.
After T10, bacteria solution is spiked to all the agar plates except agar blank.
Swab test is carried out to test for the viable count of bacteria at the time interval Tx.

With 75% isopropyl alcohol [75% IPA] the “Viable count of bacteria, durability test” value ([1]; T0 (0 min)) was 8 CFU/plate, the “Viable count of bacteria, durability test” value ([1]; T1 (30 min)) was 28 CFU/plate and the “Viable count of bacteria, durability test” value ([1]; T2 (60 min)) was 53 CFU/plate. For the same substance, the “Viable count of bacteria, durability test” value ([1]; T3 (90 min)) was 89 CFU/plate, the “Viable count of bacteria, durability test” value ([1]; T4 (120 min)) was 254 CFU/plate and the “Viable count of bacteria, durability test” value ([1]; T5 (150 min)) was 346 CFU/plate. The “Viable count of bacteria, volatility test” value ([2]; T0 (0 min)) was 54 CFU/plate, the “Viable count of bacteria, volatility test” value ([2]; T1 (30 min)) was 62 CFU/plate and the “Viable count of bacteria, volatility test” value ([2]; T2 (60 min)) was 50 CFU/plate. The “Viable count of bacteria, volatility test” value ([2]; T3 (90 min)) was 45 CFU/plate, the “Viable count of bacteria, volatility test” value ([2]; T4 (120 min)) was 49 CFU/plate and the “Viable count of bacteria, volatility test” value ([2]; T5 (150 min)) was 55 CFU/plate. The “Viable count of bacteria, volatility test” value ([2]; T6 (180 min)) was 43 CFU/plate, the “Viable count of bacteria, volatility test” value ([2]; T7 (210 min)) was 37 CFU/plate and the “Viable count of bacteria, volatility test” value ([2]; T8 (240 min)) was 44 CFU/plate. For the same substance, the “Viable count of bacteria, volatility test” value ([2]; T9 (270 min)) was 49 CFU/plate and the “Viable count of bacteria, volatility test” value ([2]; T10 (300 min)) was 0 CFU/plate.
